Assay results taken from patent US8952024B2, “Herbicidal pyrimidone derivatives” (E I du Pont de Nemours and Company, priority 2009, dated 2015).

Assays:
Assay type in all cases: in vivo
[1] = tested on: wild oat (Avena fatua); assay: Test B pre-/postemergence plant response
In short: (§1)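 Greenhouse herbicide screen. Pre- and postemergence (1- to 4-leaf) spray of compound in solvent/surfactant mixture; loam–sand soil for pre, peat/vermiculite medium for post. Visual control rating 0–100 at 13 to 15 days after treatment.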

[2] = tested on: galium (catchweed bedstraw, Galium aparine); assay: Test B pre-/postemergence plant response; settings: Preemergence
In short: as §1

[3] = tested on: nightshade (eastern black nightshade, Solanum ptycanthum); assay: Test B pre-/postemergence plant response; settings: Preemergence
In short: as §1

[4] = tested on: sunflower (common oilseed sunflower, Helianthus annuus); assay: Test B pre-/postemergence plant response; settings: Preemergence
In short: as §1

[5] = tested on: Italian ryegrass (Lolium multiflorum); assay: Test D pre-/postemergence plant response
In short: (§2)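 Under greenhouse conditions for 14 to 21 days, plants treated pre- or postemergence with surfactant-formulated compound were compared by eye with untreated controls and scored 0–100 (100 = complete control; dash = no result).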

[6] = tested on: guineagrass (Panicum maximum); assay: Test D pre-/postemergence plant response
In short: as §2

[7] = tested on: nutsedge (purple nutsedge, Cyperus rotundus); assay: Test D pre-/postemergence plant response
In short: as §2

[8] = tested on: groundsel (common groundsel, Senecio vulgaris); assay: Test D pre-/postemergence plant response; settings: Postemergence
In short: as §2

[9] = tested on: Surinam grass (Brachiaria decumbens); assay: Test D pre-/postemergence plant response
In short: as §2

[10] = tested on: johnsongrass (Sorghum halepense); assay: Test D pre-/postemergence plant response
In short: as §2

[11] = tested on: field bindweed (Convolvulus arvensis); assay: Test D pre-/postemergence plant response
In short: as §2

[12] = tested on: prickly sida (Sida spinosa); assay: Test D pre-/postemergence plant response
In short: as §2

[13] = Preemergence, 31 g ai/ha, scale 0 to 100 (0 no effect, 100 complete control)
[14] = 31 g ai/ha, scale 0 to 100 (0 no effect, 100 complete control)
[15] = 62 g ai/ha, scale 0 to 100 (0 no effect, 100 complete control)
[16] = 125 g ai/ha, scale 0 to 100, 0 no effect, 100 complete control
[17] = Postemergence, 31 g ai/ha, scale 0 to 100
[18] = Postemergence, 62 g ai/ha, scale 0 to 100 (0 no effect, 100 complete control)
[19] = Postemergence, 125 g ai/ha, scale 0 to 100 (0 no effect, 100 complete control)
[20] = Postemergence, 16 g ai/ha, scale 0 to 100
[21] = Preemergence, 16 g ai/ha, scale 0 to 100, 0 no effect, 100 complete control
[22] = Preemergence, 125 g ai/ha, scale 0 to 100
[23] = Preemergence, 62 g ai/ha, scale 0 to 100

## O=C1CCCC(O)=C1C(=O)c1cnc(-c2ccccc2)n(CC2CCCO2)c1=O (stereo not drawn) [Compound 59]
[1]; 31 g ai/ha, postemergence, scale 0 to 100, 0 is no effect, 100 is complete control
  Plant response rating, Oat, Wild: 30
[1]; Postemergence, 62 g ai/ha, scale 0 (no effect) to 100 (complete control), 13 to 15 days
  Plant response rating, Oat, Wild: 40
[1]; Postemergence, 125 g ai/ha, visual rating after 13 to 15 days, scale 0 (no effect) to 100 (complete control)
  Plant response rating, Oat, Wild: 55
[1]; Postemergence, 250 g ai/ha, scale 0 to 100 (0 no effect, 100 complete control)
  Plant response rating, Oat, Wild: 80
[1]; [13]
  Plant response rating, Oat, Wild: 0
[1]; Preemergence, 62 g ai/ha, scale 0 to 100 (0 no effect, 100 complete control)
  Plant response rating, Oat, Wild: 0
[1]; Preemergence, 125 g ai/ha, scale 0 to 100, 0 no effect, 100 complete control
  Plant response rating, Oat, Wild: 0
[2]; 250 g ai/ha, 0 to 100 scale
  Plant response rating, Galium: 98
[2]; [14]
  Plant response rating, Galium: 0
[2]; [15]
  Plant response rating, Galium: 90
[2]; [16]
  Plant response rating, Galium: 95
[3]; [14]
  Plant response rating, Nightshade: 95
[3]; [15]
  Plant response rating, Nightshade: 98
[3]; [16]
  Plant response rating, Nightshade: 100
[4]; [14]
  Plant response rating, Sunflower: 55
[4]; [15]
  Plant response rating, Sunflower: 65
[4]; [16]
  Plant response rating, Sunflower: 70
[5]; [17]
  Plant response rating, Ryegrass, Italian: 0
[5]; [18]
  Plant response rating, Ryegrass, Italian: 5
[5]; [19]
  Plant response rating, Ryegrass, Italian: 5
[5]; [20]
  Plant response rating, Ryegrass, Italian: 0
[5]; [21]
  Plant response rating, Ryegrass, Italian: 0
[5]; [13]
  Plant response rating, Ryegrass, Italian: 0
[5]; [22]
  Plant response rating, Ryegrass, Italian: 20
[6]; [17]
  Plant response rating, Guineagrass: 10
[6]; [18]
  Plant response rating, Guineagrass: 20
[6]; [19]
  Plant response rating, Guineagrass: 20
[6]; [20]
  Plant response rating, Guineagrass: 10
[6]; [21]
  Plant response rating, Guineagrass: 0
[6]; [13]
  Plant response rating, Guineagrass: 0
[6]; [23]
  Plant response rating, Guineagrass: 0
[6]; [22]
  Plant response rating, Guineagrass: 0
[7]; [17]
  Plant response rating, Nutsedge, Purple: 0
[7]; [18]
  Plant response rating, Nutsedge, Purple: 20
[7]; [19]
  Plant response rating, Nutsedge, Purple: 25
[7]; [20]
  Plant response rating, Nutsedge, Purple: 0
[7]; [21]
  Plant response rating, Nutsedge, Purple: 0
[7]; [13]
  Plant response rating, Nutsedge, Purple: 20
[7]; [23]
  Plant response rating, Nutsedge, Purple: 20
[7]; [22]
  Plant response rating, Nutsedge, Purple: 80
[8]; 31 g ai/ha, scale 0 to 100
  Plant response rating, Groundsel: 90
[8]; [15]
  Plant response rating, Groundsel: 100
[8]; 125 g ai/ha, scale 0 to 100 (0 no effect, 100 complete control)
  Plant response rating, Groundsel: 100
[8]; 16 g ai/ha, scale 0 to 100
  Plant response rating, Groundsel: 70
[9]; [17]
  Plant response rating, Surinam Grass: 35
[9]; [18]
  Plant response rating, Surinam Grass: 50
[9]; [19]
  Plant response rating, Surinam Grass: 60
[9]; [20]
  Plant response rating, Surinam Grass: 30
[9]; [21]
  Plant response rating, Surinam Grass: 5
[9]; [13]
  Plant response rating, Surinam Grass: 90
[9]; [22]
  Plant response rating, Surinam Grass: 100
[10]; [17]
  Plant response rating, Johnsongrass: 35
[10]; [18]
  Plant response rating, Johnsongrass: 40
[10]; [19]
  Plant response rating, Johnsongrass: 60
[10]; [20]
  Plant response rating, Johnsongrass: 30
[10]; [21]
  Plant response rating, Johnsongrass: 0
[10]; [13]
  Plant response rating, Johnsongrass: 0
[10]; [23]
  Plant response rating, Johnsongrass: 10
[10]; [22]
  Plant response rating, Johnsongrass: 35
[11]; [17]
  Plant response rating, Field Bindweed: 5
[11]; [18]
  Plant response rating, Field Bindweed: 30
[11]; [19]
  Plant response rating, Field Bindweed: 60
[11]; [20]
  Plant response rating, Field Bindweed: 5
[11]; [21]
  Plant response rating, Field Bindweed: 0
[11]; [13]
  Plant response rating, Field Bindweed: 0
[11]; [23]
  Plant response rating, Field Bindweed: 20
[11]; [22]
  Plant response rating, Field Bindweed: 60
[12]; [17]
  Plant response rating, Prickly Sida: 40
[12]; [18]
  Plant response rating, Prickly Sida: 70
[12]; [19]
  Plant response rating, Prickly Sida: 70
[12]; [20]
  Plant response rating, Prickly Sida: 40
[12]; [21]
  Plant response rating, Prickly Sida: 0
[12]; [13]
  Plant response rating, Prickly Sida: 0
[12]; [23]
  Plant response rating, Prickly Sida: 5
[12]; [22]
  Plant response rating, Prickly Sida: 65
